The text below walks through data of publication PMC7988117, “OMN6 a novel bioengineered peptide for the treatment of multidrug resistant Gram negative bacteria” (Scientific Reports, 2021).

Converted amounts (≈) assume the structure as drawn. Like-named read-outs stand apart in the source and are kept apart here. Bridge positions count the residues as written; N and C are the ends. Peptide text beside a SMILES is read from it. Some results are limits rather than exact numbers.

What is called MIC is the smallest concentration in the dilution series that meets the test's criterion for growth inhibition. Read a low MIC as inhibition by little substance.

One assay relates to Acinetobacter baumannii. The conditions noted are these: for MIC: CLSI broth microdilution, Muller-Hinton broth, 18–24 h, 35 ± 2 °C. As to the method:
(§1) This experiment was conducted by Omnix Medical, by JMI Laboratories (North Liberty, IA, USA) and by Aptuit (Verona) S.r.l. (Italy), an Evotec Company. All studies were performed according to Clinical and Laboratory Standards Institute guidelines[30] for the application of the broth microdilution method. Reference strains from American Type Culture Collection (ATCC) and clinical isolates from the Evotec EvostrAIn and the JMI Laboratories SENTRY surveillance program culture collections (Acinetobacter baumannii: ACC 00445, ACC 00527, ACC 00535, ATCC 17978, ATCC 19606, ATCC BAA-1793, ACC 01076, ACC 01077, NCTC 13420, JMI #1088100 and JMI #1001007; Klebsiella pneumoniae: ATCC 43816 and ATCC BAA-1705; Escherichia coli: ACC 01001 and ATCC 25922; Staphylococcus aureus: ATCC 29213, ATCC BAA-44 and ATCC 33591; Bacillus cereus: ATCC 14579; Enterococcus faecalis: ATCC 29212; Enterococcus faecium: ATCC BAA-2319) were used. The antimicrobial activity of OMN6 was determined by 12 serial two-fold dilutions in water of the 100-fold highest compound solution; 1 µL of each well was transferred into 96 microtiter plates (final concentration: 256–0.12 µg/mL). In most strains, same procedure was used to determine the colistin antimicrobial activity (final concentration: 32–0.015 µg/mL). Bacterial strains were sub-cultured on the agar plates and incubated for 18–24 h at 35 ± 2 °C in ambient air. Following incubation, the inoculum was prepared from isolated colonies and adjusted to 0.5 McFarland turbidity standard (1 to 2 × 10^8 colony-forming units/mL) in 0.9% saline. Bacterial suspension was then diluted 1:200 in Muller-Hinton broth (from BD; Becton, Dickinson and Company, Franklin Lakes, NJ, USA) and within 15 min 100 µL/well were dispensed. Growth-control wells and sterility-check wells (uninoculated well) were present in each plate. Plates were incubated for 18–24 h at 35 ± 2 °C in ambient air. […] The antimicrobial activity to other antibiotics on most bacterial strains was determined by Evotec using the antimicrobial sensitive test from the VITEK 2 automated microbiology system (bioMérieux SA, Marcy l'Etoile, France; data presented in Table S1), or by ATCC according to CLSI (Clinical and Laboratory Standards Institute) guidelines[30]
(Broth dilution looks for growth in wells or tubes with falling amounts of substance.)

Another assay relates to Enterococcus faecium. The conditions noted are these: E. faecium ATCC BAA-2319 (MDR/Van-R); CLSI broth microdilution, Muller-Hinton broth, 18–24 h, 35 ± 2 °C. As for the experimental part: as §1
A further assay relates to Enterococcus faecalis. The conditions noted are these: E. faecalis ATCC 29212 (Van-S); CLSI broth microdilution, Muller-Hinton broth, 18–24 h, 35 ± 2 °C. As to the method: as §1
A further assay concerns Bacillus cereus. The conditions noted are these: B. cereus ATCC 14579; CLSI broth microdilution, Muller-Hinton broth, 18–24 h, 35 ± 2 °C. As for the experimental part: as §1
For a further assay, the system named is Escherichia coli. The conditions noted are these: CLSI broth microdilution, Muller-Hinton broth, 18–24 h, 35 ± 2 °C. As to the method: as §1
The subject of the next assay is Klebsiella pneumoniae. The conditions noted are these: CLSI broth microdilution, Muller-Hinton broth, 18–24 h, 35 ± 2 °C. As to the method:
as §1

The next assay has as its system Staphylococcus aureus. The conditions noted are these: CLSI broth microdilution, Muller-Hinton broth, 18–24 h, 35 ± 2 °C. As to the method: as §1
For the next assay, the system named is Gram-negative bacteria. The conditions noted are these: summary of Table 1, regardless of resistance profile. As to the method: as §1

For `CC[C@H](C)[C@@H]1NC(=O)CNC(=O)[C@H](CC(=O)O)NC(=O)[C@H](CCCNC(=N)N)NC(=O)[C@H]([C@@H](C)CC)NC(=O)[C@H](CC(N)=O)NC(=O)[C@H](CCC(N)=O)NC(=O)CNC(=O)[C@H](C(C)C)NC(=O)[C@H](CCCCN)NC(=O)[C@H](CCC(=O)O)NC(=O)[C@H]([C@@H](C)CC)NC(=O)[C@H](CCCCN)NC(=O)[C@H](CCCCN)NC(=O)[C@H](Cc2ccccc2)NC(=O)[C@H](CC(C)C)NC(=O)[C@H](CCCCN)NC(=O)[C@H](Cc2c[nH]c3ccccc23)NC(=O)[C@H](CCCCN)NC(=O)[C@@H](NC(=O)[C@@H](N)CCSC)CSSC[C@@H](C(N)=O)NC(=O)[C@H](CCCCN)NC(=O)[C@H](C)NC(=O)[C@H]([C@@H](C)CC)NC(=O)[C@H](CCC(N)=O)NC(=O)[C@H]([C@@H](C)O)NC(=O)[C@H](C)NC(=O)[C@H](CCC(N)=O)NC(=O)CNC(=O)[C@H](C(C)C)NC(=O)[C@H](C(C)C)NC(=O)[C@H](C)NC(=O)[C@H](C(C)C)NC(=O)[C@H](C)NC(=O)[C@@H]2CCCN2C(=O)CNC(=O)[C@H](C)NC(=O)[C@H](CCCCN)NC(=O)[C@H]([C@@H](C)CC)NC1=O` [OMN6] (H-MCKWKLFKKIEKVGQNIRDGIIKAGPAVAVVGQATQIAKC-NH2; disulfide 2-40; N-terminus assumed), the MIC with Acinetobacter baumannii (A. baumannii ACC 00445 (MDR/Col-S)) came to 4 µg/mL (≈ 0.922 µM); against Acinetobacter baumannii (A. baumannii ACC 00527 (MDR/Col-R)) it was 4 µg/mL (≈ 0.922 µM); against Acinetobacter baumannii (A. baumannii ACC 00535 (MDR/Col-S)), 4 µg/mL (≈ 0.922 µM); in the assay with Acinetobacter baumannii (A. baumannii ACC 01076 (MDR/Col-R)), 8 µg/mL (≈ 1.84 µM); with Acinetobacter baumannii (A. baumannii ACC 01077 (MDR/Col-R)), 4 µg/mL (≈ 0.922 µM); in the assay on Acinetobacter baumannii (A. baumannii ATCC 17978 (S)), 8 µg/mL (≈ 1.84 µM). Also, the MIC against Acinetobacter baumannii (A. baumannii ATCC 19606 (S)) is recorded as 8 µg/mL (≈ 1.84 µM); in the assay with Acinetobacter baumannii (A. baumannii ATCC BAA-1793 (MDR)), 8 µg/mL (≈ 1.84 µM); against Enterococcus faecium it was over 256 µg/mL; against Enterococcus faecalis it was over 256 µg/mL; in the assay on Bacillus cereus, over 256 µg/mL; against Escherichia coli (E. coli ACC 01001 (mcr-1)), 32 µg/mL (≈ 7.37 µM). Also, the MIC is given as 16 µg/mL (≈ 3.69 µM) with Escherichia coli (E. coli ATCC 25922 (S)); 16 µg/mL (≈ 3.69 µM) against Klebsiella pneumoniae (K. pneumoniae ATCC 43816 (S)); 16 µg/mL (≈ 3.69 µM) with Klebsiella pneumoniae (K. pneumoniae ATCC BAA-1705 (MDR)); over 256 µg/mL in the assay on Staphylococcus aureus (S. aureus ATCC 29213 (MSSA)); over 256 µg/mL against Staphylococcus aureus (S. aureus ATCC 33591 (MRSA)); over 256 µg/mL in the assay on Staphylococcus aureus (S. aureus ATCC BAA-44 (MDR/MRSA)). For the same compound, the “MICs of the A. baumannii strains” value in the assay with Acinetobacter baumannii (summary of Table 1, sensitive and multidrug resistant strains) is 4 to 8 µg/mL. The “MIC on Gram-negative bacteria (all tested strains)” value against Gram-negative bacteria is at most 32 µg/mL.
